Results reported in patent US20040063695A1, “Cystic fibrosis transmembrane conductance regulator protein inhibitors and uses thereof” (priority 2002, published 2004).
“Also recorded” adds a separate entry of the source. Read-outs that look alike come from different tables or passages of the source.

How the values were obtained:
[1] = test system: Calcium-sensitive Cl− channels; test: UTP-stimulated Ca2+-dependent Cl− secretion, short-circuit current in human bronchial epithelial cells; type: cell-based
[2] = test system: Volume-sensitive Cl− channels; test: Volume-activated Cl− current, whole-cell patch clamp on FRT cells; type: cell-based, rat; settings: 5 μM; 250 mosM/kg hypotonic solution
From the text: FIG. 4B is a graphical representation of volume-activated Cl^− current (hypotonic 250 mosM/kg H2O) measured in whole-cell patch clamp experiments on FRT cells.

water channel (AQP1) = molecular target: T1, water channel (AQP1) (Homo sapiens, UniProt P29972); test: Additional specificity study: water channel; settings: 5 μM
T1 sequence (P29972 1-269): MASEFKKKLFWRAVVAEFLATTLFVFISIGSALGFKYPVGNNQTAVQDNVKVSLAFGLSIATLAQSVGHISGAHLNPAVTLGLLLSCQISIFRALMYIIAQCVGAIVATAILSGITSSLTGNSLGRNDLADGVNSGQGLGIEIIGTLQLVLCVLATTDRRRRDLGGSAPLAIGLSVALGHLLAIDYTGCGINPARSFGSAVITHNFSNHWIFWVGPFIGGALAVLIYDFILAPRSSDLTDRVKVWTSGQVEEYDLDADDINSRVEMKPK

urea transporter (UT-B) = molecular target: T2, urea transporter (UT-B) (Homo sapiens, UniProt Q13336); test: Additional specificity study: urea transporter; settings: 5 μM
T2 sequence (Q13336 1-389): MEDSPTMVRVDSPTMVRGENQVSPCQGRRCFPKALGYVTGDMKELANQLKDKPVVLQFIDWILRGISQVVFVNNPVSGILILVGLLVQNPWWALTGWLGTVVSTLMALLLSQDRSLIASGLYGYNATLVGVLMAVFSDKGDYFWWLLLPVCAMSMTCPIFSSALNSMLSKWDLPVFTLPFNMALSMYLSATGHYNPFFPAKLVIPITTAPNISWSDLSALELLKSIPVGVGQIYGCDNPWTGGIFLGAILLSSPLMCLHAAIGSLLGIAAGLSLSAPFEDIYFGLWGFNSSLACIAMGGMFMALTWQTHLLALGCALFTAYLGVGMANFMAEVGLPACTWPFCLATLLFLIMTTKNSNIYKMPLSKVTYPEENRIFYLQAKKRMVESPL

Na+/H+ exchanger (NEE3) = molecular target: T3, Na+/H+ exchanger (NEE3) (Homo sapiens, UniProt P48764); test: Additional specificity study: Na+/H+ exchanger; settings: 5 μM
T3 sequence (P48764 26-834): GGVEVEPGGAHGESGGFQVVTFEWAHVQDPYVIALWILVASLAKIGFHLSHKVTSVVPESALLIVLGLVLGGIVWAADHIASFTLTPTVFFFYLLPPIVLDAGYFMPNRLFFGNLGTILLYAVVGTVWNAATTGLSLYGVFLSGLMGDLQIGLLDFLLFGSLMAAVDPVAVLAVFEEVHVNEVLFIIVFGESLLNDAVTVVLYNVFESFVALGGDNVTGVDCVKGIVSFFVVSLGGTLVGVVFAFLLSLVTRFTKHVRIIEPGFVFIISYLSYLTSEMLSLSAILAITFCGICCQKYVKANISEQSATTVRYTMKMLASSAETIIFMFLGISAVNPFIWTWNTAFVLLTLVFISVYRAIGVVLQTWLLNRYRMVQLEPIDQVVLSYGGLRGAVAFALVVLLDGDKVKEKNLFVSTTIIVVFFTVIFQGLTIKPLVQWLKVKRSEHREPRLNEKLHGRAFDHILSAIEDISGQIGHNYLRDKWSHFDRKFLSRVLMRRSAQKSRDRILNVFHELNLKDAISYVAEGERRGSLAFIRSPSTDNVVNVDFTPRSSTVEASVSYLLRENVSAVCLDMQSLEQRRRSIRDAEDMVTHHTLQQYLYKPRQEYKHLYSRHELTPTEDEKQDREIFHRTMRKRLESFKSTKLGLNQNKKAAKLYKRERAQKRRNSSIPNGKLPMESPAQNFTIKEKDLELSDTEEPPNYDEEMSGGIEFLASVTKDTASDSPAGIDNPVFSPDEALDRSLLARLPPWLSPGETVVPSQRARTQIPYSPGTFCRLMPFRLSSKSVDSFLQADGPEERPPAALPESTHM

[3] = molecular target: T4, Cl−/HCO3− exchanger (AEI) (Homo sapiens, UniProt P02730); test: Additional specificity study: Cl−/HCO3− exchanger; settings: 5 μM
T4 sequence (P02730 1-911): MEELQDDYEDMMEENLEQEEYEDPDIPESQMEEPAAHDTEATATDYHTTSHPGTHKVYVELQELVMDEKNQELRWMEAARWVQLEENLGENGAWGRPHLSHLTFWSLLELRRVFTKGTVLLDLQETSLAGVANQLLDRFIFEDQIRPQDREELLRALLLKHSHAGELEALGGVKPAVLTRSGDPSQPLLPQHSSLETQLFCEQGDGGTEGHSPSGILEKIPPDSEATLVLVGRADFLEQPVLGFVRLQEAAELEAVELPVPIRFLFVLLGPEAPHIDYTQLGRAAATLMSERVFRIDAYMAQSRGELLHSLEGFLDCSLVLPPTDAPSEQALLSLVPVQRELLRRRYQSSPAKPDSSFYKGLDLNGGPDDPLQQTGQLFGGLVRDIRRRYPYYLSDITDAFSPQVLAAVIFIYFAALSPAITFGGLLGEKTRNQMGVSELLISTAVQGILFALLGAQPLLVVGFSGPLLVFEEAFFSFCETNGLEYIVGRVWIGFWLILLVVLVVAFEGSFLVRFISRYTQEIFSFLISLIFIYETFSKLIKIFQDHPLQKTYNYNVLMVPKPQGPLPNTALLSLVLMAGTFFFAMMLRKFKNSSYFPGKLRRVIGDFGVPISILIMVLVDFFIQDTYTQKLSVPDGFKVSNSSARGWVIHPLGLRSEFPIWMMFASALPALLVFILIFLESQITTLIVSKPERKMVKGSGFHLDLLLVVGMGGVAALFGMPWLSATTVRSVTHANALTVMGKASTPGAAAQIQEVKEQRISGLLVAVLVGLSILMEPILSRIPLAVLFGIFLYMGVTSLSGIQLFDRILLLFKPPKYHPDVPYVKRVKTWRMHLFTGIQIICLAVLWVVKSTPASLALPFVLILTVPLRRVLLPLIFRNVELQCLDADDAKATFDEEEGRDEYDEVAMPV

Animal toxicity in mice = type: in vivo
[4] = test system: cholera toxin-induced intestinal fluid secretion; set-up: species or system mice; settings: mouse, in vivo, ip
CFTR Cl− channel = molecular target: T5, CFTR Cl− channel (Rattus norvegicus, UniProt P34158); test: Short-circuit current in isolated rat colonic mucosa; settings: amiloride, forskolin 20 μM
T5 construct: from tissue; host or cells: rat colon mucosa strips

MDR-1 = MDR-1 (Homo sapiens, UniProt P08183)
phosphatase activity = test: Phosphatase assay; settings: 5 μM
cellular cAMP production = test: Intracellular cAMP assay in FRT cells
FRT cells = test: Cell toxicity by the dihydrorhodamine method; settings: after 24 hours, dihydrorhodamine assay
human wildtype CFTR = molecular target: T6, human wildtype CFTR (Homo sapiens, UniProt P13569); test: YFP fluorescence assay of CFTR-mediated I− transport in FRT cells; type: cell-based; settings: relative to CFTRinh-172 = 1.0
T6 construct: expressed in transfected cells; host or cells: Fischer rat thyroid (FRT) cells, stably transfected, co-expressing YFP-H148Q

[5] = mice, intraperitoneal 1000 μg/kg daily for 7 days

Sequence of MDR-1 (P08183 whole entry): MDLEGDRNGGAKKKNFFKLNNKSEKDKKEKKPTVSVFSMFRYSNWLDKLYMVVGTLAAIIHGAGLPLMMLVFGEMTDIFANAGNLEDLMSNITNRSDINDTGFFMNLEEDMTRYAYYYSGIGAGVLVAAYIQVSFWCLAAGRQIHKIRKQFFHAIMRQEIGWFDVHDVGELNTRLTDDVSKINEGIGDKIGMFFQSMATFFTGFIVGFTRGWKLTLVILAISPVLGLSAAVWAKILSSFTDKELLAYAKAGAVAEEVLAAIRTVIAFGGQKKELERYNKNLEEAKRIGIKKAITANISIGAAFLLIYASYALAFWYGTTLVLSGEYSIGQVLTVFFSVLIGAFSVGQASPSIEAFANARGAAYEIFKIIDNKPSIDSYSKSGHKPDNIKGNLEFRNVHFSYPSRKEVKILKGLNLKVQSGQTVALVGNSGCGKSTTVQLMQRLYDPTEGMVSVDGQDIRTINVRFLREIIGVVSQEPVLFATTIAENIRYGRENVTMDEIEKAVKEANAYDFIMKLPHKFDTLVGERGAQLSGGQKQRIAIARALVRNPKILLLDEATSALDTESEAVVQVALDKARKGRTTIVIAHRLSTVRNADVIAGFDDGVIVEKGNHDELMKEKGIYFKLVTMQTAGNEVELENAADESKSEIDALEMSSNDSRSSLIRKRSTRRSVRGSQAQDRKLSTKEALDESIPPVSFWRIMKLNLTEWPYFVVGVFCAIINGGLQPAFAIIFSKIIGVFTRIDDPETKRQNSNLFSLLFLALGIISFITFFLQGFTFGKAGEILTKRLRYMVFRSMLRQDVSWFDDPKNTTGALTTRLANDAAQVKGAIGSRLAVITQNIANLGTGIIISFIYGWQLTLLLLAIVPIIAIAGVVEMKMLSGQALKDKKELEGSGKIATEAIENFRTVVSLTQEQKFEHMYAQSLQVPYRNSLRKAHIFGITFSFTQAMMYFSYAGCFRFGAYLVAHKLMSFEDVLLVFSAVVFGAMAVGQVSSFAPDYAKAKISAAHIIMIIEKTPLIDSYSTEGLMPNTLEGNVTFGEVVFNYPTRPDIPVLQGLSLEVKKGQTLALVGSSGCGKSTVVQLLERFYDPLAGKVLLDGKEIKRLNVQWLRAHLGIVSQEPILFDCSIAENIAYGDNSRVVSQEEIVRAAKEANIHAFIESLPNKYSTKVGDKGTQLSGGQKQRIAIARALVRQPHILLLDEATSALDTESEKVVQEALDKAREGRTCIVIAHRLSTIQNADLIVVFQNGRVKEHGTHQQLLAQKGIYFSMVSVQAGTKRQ
T5 sequence (P34158 whole entry): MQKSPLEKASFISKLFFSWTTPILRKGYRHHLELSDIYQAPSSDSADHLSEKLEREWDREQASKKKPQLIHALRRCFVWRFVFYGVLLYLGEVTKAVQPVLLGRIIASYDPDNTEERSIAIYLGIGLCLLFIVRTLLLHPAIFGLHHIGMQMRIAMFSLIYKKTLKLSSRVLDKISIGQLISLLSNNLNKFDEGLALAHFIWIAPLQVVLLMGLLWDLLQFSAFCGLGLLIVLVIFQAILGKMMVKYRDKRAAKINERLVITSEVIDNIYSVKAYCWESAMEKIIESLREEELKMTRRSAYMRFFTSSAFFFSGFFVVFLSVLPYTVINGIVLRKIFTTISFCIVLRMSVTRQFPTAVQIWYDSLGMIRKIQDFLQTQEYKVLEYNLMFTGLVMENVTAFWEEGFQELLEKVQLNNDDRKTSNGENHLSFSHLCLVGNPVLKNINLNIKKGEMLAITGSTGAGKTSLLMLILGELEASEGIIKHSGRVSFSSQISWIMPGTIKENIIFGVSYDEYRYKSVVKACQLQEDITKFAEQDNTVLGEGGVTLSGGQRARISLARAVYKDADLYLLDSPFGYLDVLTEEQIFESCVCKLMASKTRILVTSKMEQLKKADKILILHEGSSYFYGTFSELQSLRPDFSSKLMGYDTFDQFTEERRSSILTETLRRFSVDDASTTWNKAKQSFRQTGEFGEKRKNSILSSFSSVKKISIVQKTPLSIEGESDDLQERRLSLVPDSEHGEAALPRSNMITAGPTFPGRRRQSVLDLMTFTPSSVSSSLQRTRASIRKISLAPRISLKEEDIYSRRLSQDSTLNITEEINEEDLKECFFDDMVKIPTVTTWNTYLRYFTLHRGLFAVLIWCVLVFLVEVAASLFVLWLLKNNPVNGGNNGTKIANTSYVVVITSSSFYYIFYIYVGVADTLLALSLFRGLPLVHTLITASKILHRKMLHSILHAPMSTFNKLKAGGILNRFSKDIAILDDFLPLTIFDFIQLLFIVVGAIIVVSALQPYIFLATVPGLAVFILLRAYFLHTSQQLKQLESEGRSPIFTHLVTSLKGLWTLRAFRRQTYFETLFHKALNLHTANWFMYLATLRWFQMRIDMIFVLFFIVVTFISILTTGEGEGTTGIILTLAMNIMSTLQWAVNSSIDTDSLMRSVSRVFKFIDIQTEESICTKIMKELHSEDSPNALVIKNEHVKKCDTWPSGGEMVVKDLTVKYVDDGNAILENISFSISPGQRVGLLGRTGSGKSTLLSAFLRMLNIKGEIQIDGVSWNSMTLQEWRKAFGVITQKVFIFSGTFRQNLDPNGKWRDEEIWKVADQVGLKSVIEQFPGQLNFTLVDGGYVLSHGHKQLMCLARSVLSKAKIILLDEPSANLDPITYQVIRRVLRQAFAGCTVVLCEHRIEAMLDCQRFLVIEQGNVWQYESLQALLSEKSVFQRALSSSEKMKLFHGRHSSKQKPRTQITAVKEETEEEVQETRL

3-[(3-trifluoromethyl)phenyl]-5-[(4-carboxyphenyl)methylene]-2-thioxo-4-thiazolidinone [CFTRinh-172]
effect on Ca2+ activated Cl− secretion ([1]; 5 μM, UTP 100 μM apical): did not inhibit | maximal UTP-dependent short-circuit current ([1]; in the presence of 5 μM inhibitor (SE, n=4)): 10.0±0.2 μA/cm^2 | effect on volume-activated Cl− currents [2]: did not block | block of water channel (AQP1) (water channel (AQP1)): did not block | block of urea transporter (UT-B) (urea transporter (UT-B)): did not block | block of Na+/H+ exchanger (NEE3) (Na+/H+ exchanger (NEE3)): did not block | block of Cl−/HCO3− exchanger (AEI) [3]: did not block | food and water intake (Animal toxicity in mice; [5]): not diminished | overt toxicity (Animal toxicity in mice; [5]): did not cause overt toxicity | serum electrolyte concentrations, glucose, liver function indices, serum creatinine, amylase and hematocrit (Animal toxicity in mice; [5]): not changed | overt toxicity (Animal toxicity in mice; single systemic dose 10 mg/kg): did not cause overt toxicity | fluid accumulation in cholera toxin-treated ileal loops [4]: effectively prevented fluid accumulation; also recorded: significantly reduced fluid secretion to that in saline control loops | reduction of short-circuit current (CFTR Cl− channel; 5 μM in mucosal solution alone): > 80% | efficacy of short-circuit current inhibition, mucosal vs. serosal addition (CFTR Cl− channel): greater efficacy | vincristine accumulation (MDR-1; 5 μM): did not affect vincristine accumulation | effect on phosphatase activity (phosphatase activity): did not affect | effect on cellular cAMP production (cellular cAMP production; 5 μM): did not affect | cAMP content (cellular cAMP production; 30 min after 20 μM forskolin, + inhibitor (n=3)): 1140±50 fmol/well | concentrations non-toxic to FRT cells (FRT cells): up to 100 μM

O=C(O)c1ccccc1C=C1SC(=S)N(c2ccccc2C(F)(F)F)C1=O [2, 3, 3-[(a-trifluoromethyl)phenyl]-5-[(b-carboxyphenyl)methylene]-2-thioxo-4-thiazolidinone]
relative potency (CFTR inhibitory activity) (human wildtype CFTR): 0.70

O=C(O)c1ccccc1C=C1SC(=S)N(c2ccccc2C(F)(F)F)C1=O [2, 4, 3-[(a-trifluoromethyl)phenyl]-5-[(b-carboxyphenyl)methylene]-2-thioxo-4-thiazolidinone]
relative potency (CFTR inhibitory activity) (human wildtype CFTR): 0.66

O=C(O)c1ccccc1C=C1SC(=S)N(c2ccccc2C(F)(F)F)C1=O [3, 2, 3-[(a-trifluoromethyl)phenyl]-5-[(b-carboxyphenyl)methylene]-2-thioxo-4-thiazolidinone]
relative potency (CFTR inhibitory activity) (human wildtype CFTR): 0.74

O=C(O)c1ccccc1C=C1SC(=S)N(c2ccccc2C(F)(F)F)C1=O [3, 3, 3-[(a-trifluoromethyl)phenyl]-5-[(b-carboxyphenyl)methylene]-2-thioxo-4-thiazolidinone]
relative potency (CFTR inhibitory activity) (human wildtype CFTR): 0.90

O=C(O)c1ccccc1C=C1SC(=S)N(c2ccccc2C(F)(F)F)C1=O [4, 2, 3-[(a-trifluoromethyl)phenyl]-5-[(b-carboxyphenyl)methylene]-2-thioxo-4-thiazolidinone]
relative potency (CFTR inhibitory activity) (human wildtype CFTR): 0.67

O=C(O)c1ccccc1C=C1SC(=S)N(c2ccccc2C(F)(F)F)C1=O [4, 3, 3-[(a-trifluoromethyl)phenyl]-5-[(b-carboxyphenyl)methylene]-2-thioxo-4-thiazolidinone]
relative potency (CFTR inhibitory activity) (human wildtype CFTR): 0.64

O=C(O)c1ccccc1C=C1SC(=S)N(c2ccccc2C(F)(F)F)C1=O [4, 4, 3-[(a-trifluoromethyl)phenyl]-5-[(b-carboxyphenyl)methylene]-2-thioxo-4-thiazolidinone]
relative potency (CFTR inhibitory activity) (human wildtype CFTR): 0.56

O=C(O)Oc1ccc(/C=C2\SC(=O)N(c3cccc(C(F)(F)F)c3)C2=S)cc1 [CFTRinh-029, 3-[(3-trifluoromethyl)phenyl]-5-[(4-oxycarboxyphenyl)methylene]-2-thioxo-4-thiazolidinone]
relative potency (CFTR inhibitory activity) (human wildtype CFTR): 0.3

O=C1S/C(=C\c2ccc(O)c(O)c2)C(=S)N1c1cccc(C(F)(F)F)c1 [CFTRinh-185, 3-[(3-trifluoromethyl)phenyl]-5-[(3,4-dihydroxyphenyl)methylene]-2-thioxo-4-thiazolidinone]
relative potency (CFTR inhibitory activity) (human wildtype CFTR): 0.2

O=C(O)c1ccccc1C=C1SC(=S)N(c2ccccc2C(F)(F)F)C1=O [a=2, b=2, 3-[(a-trifluoromethyl)phenyl]-5-[(b-carboxyphenyl)methylene]-2-thioxo-4-thiazolidinone]
relative potency (CFTR inhibitory activity) (human wildtype CFTR): 0.69

COc1ccc(CCN(C)CCCC(C#N)(c2ccc(OC)c(OC)c2)C(C)C)cc1OC (stereo not drawn) [verapamil, reference compound]
vincristine accumulation (MDR-1; 100 μM): strongly increased
